According to ChEMBL document CHEMBL1201862, “PubChem BioAssay data set” (2004):
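Interpolation was linear, between the two tested concentrations surrounding the appropriate level; five concentrations were tested over 48 hours in 96-well plates. GI50 is the concentration that inhibits growth by half.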 Calls of active or inactive are those of the source. Cut-off read from the data, not from the text of the source: active = GI50 up to about 1.1 µM and inactive = higher.

Experiments:
Experiment in all cases: growth of human tumour cells (NCI), 48 h
[1] = test system: 786-0
[2] = test system: A498
[3] = test system: A549
[4] = test system: ACHN
[5] = test system: BT-549
[6] = test system: CAKI-1
[7] = test system: COLO 205
[8] = test system: DU-145
[9] = test system: EKVX
[10] = test system: HCC 2998
[11] = test system: HCT-116
[12] = test system: HCT-15
[13] = test system: HOP-62
[14] = test system: HT-29
[15] = test system: IGROV-1
[16] = test system: K562
[17] = test system: KM12
[18] = test system: LOX IMVI
[19] = test system: M14
[20] = test system: MCF7
[21] = test system: MDA-MB-231
[22] = test system: MDA-MB-435
[23] = test system: MOLT-4
[24] = test system: Malme-3M
[25] = test system: NCI-H226
[26] = test system: NCI-H23
[27] = test system: NCI-H460
[28] = test system: NCI/ADR-RES
[29] = test system: OVCAR-3
[30] = test system: OVCAR-4
[31] = test system: OVCAR-5
[32] = test system: OVCAR-8
[33] = test system: PC-3
[34] = test system: RPMI-8226
[35] = test system: SF-268
[36] = test system: SF-295
[37] = test system: SF-539
[38] = test system: SK-MEL-28
[39] = test system: SK-MEL-2
[40] = test system: SK-MEL-5
[41] = test system: SK-OV-3
[42] = test system: SNB-19
[43] = test system: SNB-75
[44] = test system: SR
[45] = test system: SW-620
[46] = test system: T47D
[47] = test system: TK-10
[48] = test system: U-251
[49] = test system: UACC-257
[50] = test system: UACC-62
[51] = test system: UO-31
[52] = test system: CCRF-CEM
[53] = test system: HL-60
[54] = test system: HOP-92
[55] = test system: Hs-578T
[56] = test system: MDA-N
[57] = test system: NCI-H522
[58] = test system: RXF 393
[59] = test system: SN12C

CCC(C(=O)C(=O)OC)P1(=O)OC(C)(C)CN1C(C)(C)C (centres undefined)
GI50 [1]: > 100 µM (inactive) | GI50 [2]: 20.5 µM (inactive) | GI50 [3]: > 100 µM (inactive) | GI50 [4]: > 100 µM (inactive) | GI50 [5]: > 100 µM (inactive) | GI50 [6]: > 100 µM (inactive) | GI50 [7]: > 100 µM (inactive) | GI50 [8]: > 100 µM (inactive) | GI50 [9]: > 100 µM (inactive) | GI50 [10]: > 100 µM (inactive) | GI50 [11]: > 100 µM (inactive) | GI50 [12]: > 100 µM | GI50 [13]: > 100 µM (inactive) | GI50 [14]: > 100 µM (inactive) | GI50 [15]: > 100 µM (inactive) | GI50 [16]: > 100 µM (inactive) | GI50 [17]: > 100 µM (inactive) | GI50 [18]: > 100 µM (inactive) | GI50 [19]: > 100 µM (inactive) | GI50 [20]: 26.9 µM (inactive) | GI50 [21]: > 100 µM (inactive) | GI50 [22]: > 100 µM (inactive) | GI50 [23]: > 100 µM (inactive) | GI50 [24]: > 100 µM (inactive) | GI50 [25]: > 100 µM (inactive) | GI50 [26]: > 100 µM (inactive) | GI50 [27]: > 100 µM (inactive) | GI50 [28]: > 100 µM (inactive) | GI50 [29]: > 100 µM (inactive) | GI50 [30]: > 100 µM (inactive) | GI50 [31]: > 100 µM (inactive) | GI50 [32]: > 100 µM (inactive) | GI50 [33]: > 100 µM (inactive) | GI50 [34]: > 100 µM (inactive) | GI50 [35]: > 100 µM (inactive) | GI50 [36]: > 100 µM (inactive) | GI50 [37]: > 100 µM (inactive) | GI50 [38]: 11.9 µM (inactive) | GI50 [39]: > 100 µM (inactive) | GI50 [40]: > 100 µM (inactive) | GI50 [41]: > 100 µM (inactive) | GI50 [42]: > 100 µM (inactive) | GI50 [43]: > 100 µM (inactive) | GI50 [44]: > 100 µM (inactive) | GI50 [45]: > 100 µM (inactive) | GI50 [46]: > 100 µM (inactive) | GI50 [47]: > 100 µM (inactive) | GI50 [48]: > 100 µM (inactive) | GI50 [49]: > 100 µM (inactive) | GI50 [50]: 22.6 µM (inactive) | GI50 [51]: > 100 µM (inactive)

NC(=O)C(=CNC(=S)Nc1ccc(Cl)c(Cl)c1)C(N)=O
GI50 [1]: > 71.1 µM (inactive) | GI50 [2]: > 61.4 µM (inactive) | GI50 [3]: > 100 µM (inactive) | GI50 [4]: > 94 µM (inactive) | GI50 [6]: 59.4 µM (inactive) | GI50 [52]: > 80.4 µM (inactive) | GI50 [7]: 42.8 µM (inactive) | GI50 [8]: > 100 µM (inactive) | GI50 [9]: 65.9 µM (inactive) | GI50 [10]: 26.8 µM (inactive) | GI50 [11]: > 78.2 µM (inactive) | GI50 [12]: 45.1 µM | GI50 [53]: > 60.1 µM (inactive) | GI50 [13]: > 100 µM (inactive) | GI50 [54]: 33.1 µM (inactive) | GI50 [14]: 46.3 µM (inactive) | GI50 [55]: 30.3 µM (inactive) | GI50 [15]: 92.7 µM (inactive) | GI50 [16]: > 70 µM (inactive) | GI50 [17]: 55.1 µM (inactive) | GI50 [18]: > 92.3 µM (inactive) | GI50 [19]: > 100 µM (inactive) | GI50 [20]: > 52 µM (inactive) | GI50 [21]: > 100 µM (inactive) | GI50 [22]: 44.8 µM (inactive) | GI50 [56]: 47.4 µM (inactive) | GI50 [23]: 48.3 µM (inactive) | GI50 [24]: > 100 µM (inactive) | GI50 [25]: 0.374 µM (active) | GI50 [26]: > 92.3 µM (inactive) | GI50 [27]: > 100 µM (inactive) | GI50 [57]: 17.5 µM (inactive) | GI50 [28]: 85.1 µM (inactive) | GI50 [29]: > 100 µM (inactive) | GI50 [30]: 46 µM (inactive) | GI50 [31]: > 100 µM (inactive) | GI50 [32]: > 88.3 µM (inactive) | GI50 [33]: > 66.4 µM (inactive) | GI50 [34]: 36.1 µM (inactive) | GI50 [58]: > 49.9 µM (inactive) | GI50 [35]: > 90.8 µM (inactive) | GI50 [36]: > 85.7 µM (inactive) | GI50 [37]: 26.7 µM (inactive) | GI50 [38]: > 100 µM (inactive) | GI50 [39]: > 81.3 µM (inactive) | GI50 [40]: 42.3 µM (inactive) | GI50 [41]: > 78.7 µM (inactive) | GI50 [59]: > 100 µM (inactive) | GI50 [42]: > 94.8 µM (inactive) | GI50 [43]: > 59.6 µM (inactive) | GI50 [44]: > 71.3 µM (inactive) | GI50 [45]: > 100 µM (inactive) | GI50 [46]: 12.2 µM (inactive) | GI50 [47]: > 77.8 µM (inactive) | GI50 [48]: > 56 µM (inactive) | GI50 [49]: > 100 µM (inactive) | GI50 [50]: 49.8 µM (inactive) | GI50 [51]: 16.5 µM (inactive)
